Source: patent publication US20170252362A1, “METHODS & COMPOUNDS USEFUL IN HEMATOPOIETIC STEM CELL MEDICINE” (ECOLE POLYTECHNIQUE FEDERALE DE LAUSANNE (EPFL), priority 2014, published 2017)

Assays:
[1] = tested on: hematopoietic stem and progenitor pool sizes in the bone marrow; assay: Flow cytometry analysis of hematopoietic stem and progenitor pool sizes in bone marrow of mice fed the agent; type: in vivo, mouse; conditions: 1 week treatment through the food, flow cytometry
Protocol: Bone marrow (BM) cells were isolated from C57Bl/6J and C57Bl/6J Ly5.1 from crushed femora and tibia. Flow cytometry analysis of hematopoietic stem and progenitor cells was performed on freshly isolated bone marrow (BM). Cell suspensions were filtered through a 70 μm cell strainer and erythroid cells were eliminated by incubation with red blood cells lysis buffer (eBioscences). Lineage-positive cells were removed with a magnetic lineage depletion kit (Miltenyi Biotech). Cell suspensions were stained with a panel of specific antibodies for stem and progenitor cells and analyzed or FACS-sorted respectively on a BD LSRII and BD FACS Aria II.
C57Bl/6J and C57Bl/6J Ly5.1 were purchased from Charles River Laboratories International and maintained in micro-isolator cages. Mice were provided continuously with sterile food, water and bedding. Nicotinamide riboside (NR) (custom synthesized as triflate salt by Novalix in Strasbourg) was supplied in the food at 0.4 g/Kg mouse and mice were treated for 1 and 4 weeks respectively.

[2] = tested on: HSC mitochondrial activity; assay: In vivo assay of HSC mitochondrial activity: TMRM flow cytometry of freshly isolated HSC from mice fed the compounds; design: species or system mouse; conditions: mice fed with the compounds
Excerpt: The effect of agents on HSC mitochondrial activity has been assessed by measuring mitochondrial activity in vivo: freshly isolated HSC from mice fed with the compounds were stained by TMRM and analyzed by flow cytometry.

[3] = Konieczna et al., 2013; cited from earlier work

NC(=O)c1cccnc1 [NAM, Nicotinamide]
hematopoietic stem and progenitor compartments in BM [1]: did not show significant expansion | ability to reduce mitochondrial membrane potential in HSCs [2]: not able to significantly reduce mitochondrial membrane potential in HSCs | platelet levels in mice [3]: did not increase the platelet levels
